This is an account of results in US8541588B2, “Sulfonamide derivatives” (Pfizer Limited, priority 2009, dated 2013).

The target of this experiment is T1, Nav1.7 (or SCN9A) channel; HEK cells stably transfected with hSCN9A (Homo sapiens, UniProt Q15858).
T1 construct: expressed in transfected cells
The experiment can be described thus: Nav1.7 block, PatchXpress 7000 automated whole-cell voltage clamp, estimated IC50 (EIC50). It counts as cell-based. The settings on record: PatchXpress platform; hSCN9A HEK cells held at V1/2 of inactivation; estimated IC50.

T1 sequence (Q15858 whole entry): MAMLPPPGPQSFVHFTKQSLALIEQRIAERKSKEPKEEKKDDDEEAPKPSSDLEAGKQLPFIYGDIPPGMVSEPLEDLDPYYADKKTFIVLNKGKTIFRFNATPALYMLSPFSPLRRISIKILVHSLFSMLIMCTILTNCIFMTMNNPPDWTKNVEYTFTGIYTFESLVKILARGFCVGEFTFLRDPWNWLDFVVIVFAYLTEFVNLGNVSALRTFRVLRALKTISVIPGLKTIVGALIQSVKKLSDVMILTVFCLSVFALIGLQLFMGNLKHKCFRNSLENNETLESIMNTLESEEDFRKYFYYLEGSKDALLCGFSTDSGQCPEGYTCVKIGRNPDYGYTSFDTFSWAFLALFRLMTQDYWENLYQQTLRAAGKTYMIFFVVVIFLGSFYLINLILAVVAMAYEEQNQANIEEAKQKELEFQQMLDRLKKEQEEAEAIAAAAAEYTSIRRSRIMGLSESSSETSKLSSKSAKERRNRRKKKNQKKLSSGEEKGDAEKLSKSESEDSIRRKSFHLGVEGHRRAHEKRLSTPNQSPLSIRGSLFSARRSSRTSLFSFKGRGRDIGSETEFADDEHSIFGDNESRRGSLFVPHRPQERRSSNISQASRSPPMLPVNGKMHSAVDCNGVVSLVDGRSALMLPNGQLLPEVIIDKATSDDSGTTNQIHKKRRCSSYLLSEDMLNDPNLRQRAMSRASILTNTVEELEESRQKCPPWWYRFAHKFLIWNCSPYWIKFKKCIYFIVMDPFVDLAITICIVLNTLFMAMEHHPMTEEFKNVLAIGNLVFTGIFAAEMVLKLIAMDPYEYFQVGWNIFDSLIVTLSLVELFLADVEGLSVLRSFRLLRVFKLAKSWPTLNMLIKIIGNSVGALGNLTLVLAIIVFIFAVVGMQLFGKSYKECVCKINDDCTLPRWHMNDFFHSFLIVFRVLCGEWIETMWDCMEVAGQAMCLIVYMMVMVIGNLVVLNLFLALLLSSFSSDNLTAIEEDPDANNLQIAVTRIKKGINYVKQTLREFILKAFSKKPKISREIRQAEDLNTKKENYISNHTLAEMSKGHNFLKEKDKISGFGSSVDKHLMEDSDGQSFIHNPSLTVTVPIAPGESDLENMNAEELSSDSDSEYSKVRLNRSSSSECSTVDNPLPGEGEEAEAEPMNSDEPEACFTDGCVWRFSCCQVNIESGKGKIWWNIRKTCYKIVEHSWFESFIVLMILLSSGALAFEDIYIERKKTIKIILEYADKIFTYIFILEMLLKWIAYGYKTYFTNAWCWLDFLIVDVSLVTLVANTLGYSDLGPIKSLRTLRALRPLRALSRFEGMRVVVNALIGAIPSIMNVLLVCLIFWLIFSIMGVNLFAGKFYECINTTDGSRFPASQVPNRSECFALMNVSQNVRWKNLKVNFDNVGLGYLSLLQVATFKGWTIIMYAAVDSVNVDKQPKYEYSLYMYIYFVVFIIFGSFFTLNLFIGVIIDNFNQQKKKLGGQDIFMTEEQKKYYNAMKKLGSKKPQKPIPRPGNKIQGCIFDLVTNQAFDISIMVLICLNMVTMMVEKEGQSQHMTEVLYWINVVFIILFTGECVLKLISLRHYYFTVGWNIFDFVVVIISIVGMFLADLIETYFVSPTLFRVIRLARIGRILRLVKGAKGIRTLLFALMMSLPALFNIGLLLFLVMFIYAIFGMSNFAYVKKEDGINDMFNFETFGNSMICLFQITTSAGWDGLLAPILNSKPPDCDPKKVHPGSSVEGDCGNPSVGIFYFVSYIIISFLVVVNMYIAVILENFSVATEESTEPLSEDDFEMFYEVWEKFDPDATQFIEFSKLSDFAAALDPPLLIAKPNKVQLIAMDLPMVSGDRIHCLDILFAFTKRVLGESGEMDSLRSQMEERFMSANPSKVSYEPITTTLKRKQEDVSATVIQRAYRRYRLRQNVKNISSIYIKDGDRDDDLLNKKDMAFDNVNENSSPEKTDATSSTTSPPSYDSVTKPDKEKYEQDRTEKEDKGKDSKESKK

One may read the IC50 as the concentration at which inhibition is half-maximal. As to `COc1cc(-c2ccccc2Oc2ccc(S(=O)(=O)Nc3ncns3)cc2C#N)ccc1C#N` [Example 13, 3-cyano-4-[(4′-cyano-3′-methoxybiphenyl-2-yl)oxy]-N-1,2,4-thiadiazol-5-ylbenzenesulfonamide], the 50% inhibitory concentration (IC50) is 170 nM.

For `CN(C)c1ncc(Oc2ccc(S(=O)(=O)Nc3ncns3)cc2C#N)c(-c2ccccc2F)n1` [Example 14, 3-cyano-4-{[2-(dimethylamino)-4-(2-fluorophenyl)pyrimidin-5-yl]oxy}-N-1,2,4-thiadiazol-5-ylbenzenesulfonamide], the IC50 was 4300 nM.

Turning to `Cc1ccc(-c2ncccc2Oc2ccc(S(=O)(=O)Nc3ncns3)cc2C#N)cc1` [Example 17, 3-cyano-4-{[2-(4-methylphenyl)pyridin-3-yl]oxy}-N-1,2,4-thiadiazol-5-ylbenzenesulfonamide], the 50% inhibitory concentration (IC50) is 25500 nM.

With `N#Cc1cc(S(=O)(=O)Nc2ncns2)ccc1Oc1cnc(N)nc1-c1ccc(Cl)cc1` [Example 18, 4-{[2-amino-4-(4-chlorophenyl)pyrimidin-5-yl]oxy}-3-cyano-N-1,2,4-thiadiazol-5-ylbenzenesulfonamide], the 50% inhibitory concentration (IC50) is >10000 nM.

Take `CCc1ccc(Oc2ccc(S(=O)(=O)Nc3ncns3)cc2C#N)c(-c2ccccc2)n1` [Example 19, 3-cyano-4-[(6-ethyl-2-phenylpyridin-3-yl)oxy]-N-1,2,4-thiadiazol-5-ylbenzenesulfonamide]: the IC50 was 720 nM.

Consider `N#Cc1cc(S(=O)(=O)Nc2ncns2)ccc1Oc1nccnc1-c1ccccc1` [Example 20, 3-cyano-4-[(3-phenylpyrazin-2-yl)oxy]-N-1,2,4-thiadiazol-5-ylbenzenesulfonamide], for which the half-maximal inhibitory concentration (IC50) is >10000 nM.

Turning to `N#Cc1cc(S(=O)(=O)Nc2ncns2)ccc1Oc1nnccc1-c1ccccc1` [Example 21, 3-cyano-4-[(4-phenylpyridazin-3-yl)oxy]-N-1,2,4-thiadiazol-5-ylbenzenesulfonamide], the IC50 is >10000 nM.

On to `N#Cc1cc(S(=O)(=O)Nc2ncns2)ccc1Oc1cccnc1-c1ccccc1` [Example 22, 3-cyano-4-[(2-phenylpyridin-3-yl)oxy]-N-1,2,4-thiadiazol-5-ylbenzenesulfonamide], for which the half-maximal inhibitory concentration (IC50) was 3140 nM.

As for `N#Cc1cc(S(=O)(=O)Nc2ncns2)ccc1Oc1cnc(N)nc1-c1ccccc1` [Example 23, 4-[(2-amino-4-phenylpyrimidin-5-yl)oxy]-3-cyano-N-1,2,4-thiadiazol-5-ylbenzenesulfonamide], the half-inhibitory concentration (IC50) was 2030 nM.

Take `N#Cc1cc(S(=O)(=O)Nc2ncns2)ccc1Oc1ccccc1-c1ccccc1` [Example 24, 4-(biphenyl-2-yloxy)-3-cyano-N-(1,2,4-thiadiazol-5-yl)benzenesulfonamide]: the IC50 is 110 nM.

Turning to `N#Cc1cc(S(=O)(=O)Nc2ncns2)ccc1Oc1ccc(F)cc1-c1ccnn1CC(F)(F)F` [Example 26, 3-cyano-4-(4-fluoro-2-(1-(2,2,2-trifluoroethyl)-1H-pyrazol-5-yl)phenoxy)-N-(1,2,4-thiadiazol-5-yl)benzenesulfonamide], the IC50 is 450 nM.

Regarding `Cc1ccc(Oc2ccc(S(=O)(=O)Nc3ncns3)cc2C#N)c(-c2c(C)cnn2C)c1` [Example 27, 3-cyano-4-(2-(1,4-dimethyl-1H-pyrazol-5-yl)-4-methylphenoxy)-N-(1,2,4-thiadiazol-5-yl)benzenesulfonamide], the half-inhibitory concentration (IC50) is 780 nM.

Turning to `Cc1ccc(Oc2ccc(S(=O)(=O)Nc3ncns3)cc2C#N)c(-c2nn(C)cc2C)c1` [Example 28, 3-cyano-4-(2-(1,4-dimethyl-1H-pyrazol-3-yl)-4-methylphenoxy)-N-(1,2,4-thiadiazol-5-yl)benzenesulfonamide], the IC50 was 2980 nM.

In the case of `CCOC(=O)Cn1nccc1-c1cc(Cl)ccc1Oc1ccc(S(=O)(=O)Nc2ncns2)cc1C#N` [Example 29, ethyl 2-(5-(2-(4-(N-1,2,4-thiadiazol-5-ylsulfamoyl)-2-cyanophenoxy)-5-chlorophenyl)-1H-pyrazol-1-yl)acetate], the IC50 was 230 nM.

As for `COC(=O)c1ccc(Oc2ccc(S(=O)(=O)Nc3ncns3)cc2C#N)c(-c2ccnn2C)c1` [Example 30, methyl 4-(4-(N-1,2,4-thiadiazol-5-ylsulfamoyl)-2-cyanophenoxy)-3-(1-methyl-1H-pyrazol-5-yl)benzoate], the IC50 is 300 nM.

On to `Cc1cccc(-c2cc(F)ccc2F)c1Oc1ccc(S(=O)(=O)Nc2ncns2)cc1C#N` [Example 31, 3-cyano-4-[(2′,5′-difluoro-3-methylbiphenyl-2-yl)oxy]-N-1,2,4-thiadiazol-5-ylbenzenesulfonamide], for which the half-inhibitory concentration (IC50) is 16200 nM.

In the case of `Cc1cccc(-c2cccc(OC(C)C)c2)c1Oc1ccc(S(=O)(=O)Nc2ncns2)cc1C#N` [Example 32, 3-cyano-4-[(3′-isopropoxy-3-methylbiphenyl-2-yl)oxy]-N-1,2,4-thiadiazol-5-ylbenzenesulfonamide], the IC50 is 3380 nM.

`N#Cc1cc(S(=O)(=O)Nc2ncns2)ccc1Oc1ccc(F)cc1-c1cc(F)ccc1F` [Example 33, 3-cyano-N-1,2,4-thiadiazol-5-yl-4-[(2′,5,5′-trifluorobiphenyl-2-yl)oxy]benzenesulfonamide]: the 50% inhibitory concentration (IC50) is 380 nM.

Regarding `CC(C)Oc1cccc(-c2ccccc2Oc2ccc(S(=O)(=O)Nc3ncns3)cc2C#N)c1` [Example 34, 3-cyano-4-[(3′-isopropoxybiphenyl-2-yl)oxy]-N-1,2,4-thiadiazol-5-ylbenzenesulfonamide], the IC50 was 90 nM.

Regarding `Cc1cccc(-c2ccc(F)cc2F)c1Oc1ccc(S(=O)(=O)Nc2ncns2)cc1C#N` [Example 35, 3-cyano-4-[(2′,4′-difluoro-3-methylbiphenyl-2-yl)oxy]-N-1,2,4-thiadiazol-5-ylbenzenesulfonamide], the IC50 is 12700 nM.

As for `N#Cc1cc(S(=O)(=O)Nc2ncns2)ccc1Oc1ccccc1-c1cc(F)ccc1F` [Example 36, 3-cyano-4-[(2′,5′-difluorobiphenyl-2-yl)oxy]-N-1,2,4-thiadiazol-5-ylbenzenesulfonamide], the 50% inhibitory concentration (IC50) was 1290 nM.

In the case of `Cc1cccc(-c2cccc(OC(F)(F)F)c2)c1Oc1ccc(S(=O)(=O)Nc2ncns2)cc1C#N` [Example 37, 3-cyano-4-{[3-methyl-3′-(trifluoromethoxy)biphenyl-2-yl]oxy}-N-1,2,4-thiadiazol-5-ylbenzenesulfonamide], the IC50 is 30900 nM.

On to `Cc1cccc(-c2cccc(F)c2)c1Oc1ccc(S(=O)(=O)Nc2ncns2)cc1C#N` [Example 38, 3-cyano-4-[(3′-fluoro-3-methylbiphenyl-2-yl)oxy]-N-1,2,4-thiadiazol-5-ylbenzenesulfonamide], for which the half-maximal inhibitory concentration (IC50) was 15500 nM.

As to `Cc1cccc(-c2ccc(F)cc2)c1Oc1ccc(S(=O)(=O)Nc2ncns2)cc1C#N` [Example 39, 3-cyano-4-[(4′-fluoro-3-methylbiphenyl-2-yl)oxy]-N-1,2,4-thiadiazol-5-ylbenzenesulfonamide], the IC50 is 2030 nM.

As to `Cc1cccc(-c2ccc(OC(F)(F)F)cc2)c1Oc1ccc(S(=O)(=O)Nc2ncns2)cc1C#N` [Example 40, 3-cyano-4-{[3-methyl-4′-(trifluoromethoxy)biphenyl-2-yl]oxy}-N-1,2,4-thiadiazol-5-ylbenzenesulfonamide], the IC50 was 5740 nM.

Regarding `COc1ccc(-c2cccc(C)c2Oc2ccc(S(=O)(=O)Nc3ncns3)cc2C#N)cc1F` [Example 41, 3-cyano-4-[(3′-fluoro-4′-methoxy-3-methylbiphenyl-2-yl)oxy]-N-1,2,4-thiadiazol-5-ylbenzenesulfonamide], the concentration for half-maximal inhibition (IC50) is 10900 nM.

Turning to `COc1ccc(-c2cccc(C)c2Oc2ccc(S(=O)(=O)Nc3ncns3)cc2C#N)cc1` [Example 42, 3-cyano-4-[(4′-methoxy-3-methylbiphenyl-2-yl)oxy]-N-1,2,4-thiadiazol-5-ylbenzenesulfonamide], the 50% inhibitory concentration (IC50) was 1730 nM.

As to `Cc1cccc(-c2ccccc2F)c1Oc1ccc(S(=O)(=O)Nc2ncns2)cc1C#N` [Example 43, 3-cyano-4-[(2′-fluoro-3-methylbiphenyl-2-yl)oxy]-N-1,2,4-thiadiazol-5-ylbenzenesulfonamide], the IC50 is 21700 nM.

As for `Cc1cccc(-c2ccc(F)c(F)c2)c1Oc1ccc(S(=O)(=O)Nc2ncns2)cc1C#N` [Example 44, 3-cyano-4-[(3′,4′-difluoro-3-methylbiphenyl-2-yl)oxy]-N-1,2,4-thiadiazol-5-ylbenzenesulfonamide], the 50% inhibitory concentration (IC50) was 5930 nM.

Take `Cc1cccc(-c2cc(F)cc(F)c2)c1Oc1ccc(S(=O)(=O)Nc2ncns2)cc1C#N` [Example 45, 3-cyano-4-[(3′,5′-difluoro-3-methylbiphenyl-2-yl)oxy]-N-1,2,4-thiadiazol-5-ylbenzenesulfonamide]: the IC50 is 30440 nM.

With `N#Cc1cc(S(=O)(=O)Nc2ncns2)ccc1Oc1ccc(F)cc1-c1ccc(F)cc1F` [Example 46, 3-cyano-N-1,2,4-thiadiazol-5-yl-4-[(2′,4′,5-trifluorobiphenyl-2-yl)oxy]benzenesulfonamide], the 50% inhibitory concentration (IC50) is 210 nM.

Consider `COc1ccc(-c2ccccc2Oc2ccc(S(=O)(=O)Nc3ncns3)cc2C#N)cc1F` [Example 48, 3-cyano-4-[(3′-fluoro-4′-methoxybiphenyl-2-yl)oxy]-N-1,2,4-thiadiazol-5-ylbenzenesulfonamide], for which the IC50 was 900 nM.

For the compound `N#Cc1cc(S(=O)(=O)Nc2ncns2)ccc1Oc1ccccc1-c1ccc(F)cc1` [Example 49, 3-cyano-4-[(4′-fluorobiphenyl-2-yl)oxy]-N-1,2,4-thiadiazol-5-ylbenzenesulfonamide], the IC50 was 160 nM.

On to `N#Cc1cc(S(=O)(=O)Nc2ncns2)ccc1Oc1ccccc1-c1ccccc1F` [Example 50, 3-cyano-4-[(2′-fluorobiphenyl-2-yl)oxy]-N-1,2,4-thiadiazol-5-ylbenzenesulfonamide], for which the IC50 is 840 nM.

As for `COc1ccc(-c2ccccc2Oc2ccc(S(=O)(=O)Nc3ncns3)cc2C#N)cc1` [Example 51, 3-cyano-4-[(4′-methoxybiphenyl-2-yl)oxy]-N-1,2,4-thiadiazol-5-ylbenzenesulfonamide], the IC50 was 330 nM.

Regarding `N#Cc1cc(S(=O)(=O)Nc2ncns2)ccc1Oc1ccccc1-c1ccc(F)c(F)c1` [Example 52, 3-cyano-4-[(3′,4′-difluorobiphenyl-2-yl)oxy]-N-1,2,4-thiadiazol-5-ylbenzenesulfonamide], the IC50 is 360 nM.
